Results published in patent publication US20080267942A1, “BENZAZEPIN-2(1H)-ONE DERIVATIVES” (Pfizer Limited, priority 2006, published 2008).

Tests used:
[1] = molecular target: T1, porcine beta-2 adrenoceptor (Sus scrofa, UniProt Q28997); assay: cAMP assay in CHO cells transfected with the porcine beta-2 adrenoceptor (DiscoveRx Hit Hunter cAMP II); type: cell-based; details: CHO cells transfected with porcine beta-2 adrenoceptor, 30 minutes incubation with compound
T1 construct: expressed in transfected cells; host or cells: CHO cells
T1 sequence (Q28997 whole entry): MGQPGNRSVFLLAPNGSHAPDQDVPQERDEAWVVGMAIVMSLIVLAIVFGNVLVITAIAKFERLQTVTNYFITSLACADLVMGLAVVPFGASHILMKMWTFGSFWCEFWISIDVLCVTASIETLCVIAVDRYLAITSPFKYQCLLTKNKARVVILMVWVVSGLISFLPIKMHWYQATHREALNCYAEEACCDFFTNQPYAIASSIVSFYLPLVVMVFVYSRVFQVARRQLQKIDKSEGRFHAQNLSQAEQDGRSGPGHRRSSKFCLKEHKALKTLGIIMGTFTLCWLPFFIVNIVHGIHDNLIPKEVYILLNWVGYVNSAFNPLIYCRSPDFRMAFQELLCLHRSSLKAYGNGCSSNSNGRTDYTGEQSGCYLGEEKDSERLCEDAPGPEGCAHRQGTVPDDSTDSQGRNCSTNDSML
Experimental: (§1) CHO cells transfected with the bovine or porcine beta-2 adrenceptors were maintained in culture in DMEM/HAMS F12+10% FBS+2 mM glutamine+500 μg/ml geneticin (for the porcine receptor the medium was supplement with 1.5 mM HEPES) at 37° C. with a 5% CO2 atmosphere.
(§2) Cells were plated into 96 well viewplates in medium and incubated overnight at 37° C. with a 5% CO2 atmosphere. The cells were pre-incubated with 0.5 mM IBMX in PBS for 30 minutes prior to incubation with increasing concentrations of experimental compound (5×10^−12 to 10^−5M) for 30 minutes at 37° C. with a 5% CO2 atmosphere. At the end of the incubation time the compound was removed and the cells assayed for cAMP using the DiscoveRx Hit Hunter cAMP II™ assay kit.
(§3) Duplicate samples were run for each experimental compound and the data generated was analysed using EC50 analysis software in Graphpad Prism.

[2] = molecular target: T2, bovine beta-2 adrenoceptor (Bos taurus, UniProt Q28044); assay: cAMP assay in CHO cells transfected with the bovine beta-2 adrenoceptor (DiscoveRx Hit Hunter cAMP II); type: cell-based; details: CHO cells transfected with bovine beta-2 adrenoceptor, 30 minutes incubation with compound
T2 construct: expressed in transfected cells; host or cells: CHO cells
T2 sequence (Q28044 whole entry): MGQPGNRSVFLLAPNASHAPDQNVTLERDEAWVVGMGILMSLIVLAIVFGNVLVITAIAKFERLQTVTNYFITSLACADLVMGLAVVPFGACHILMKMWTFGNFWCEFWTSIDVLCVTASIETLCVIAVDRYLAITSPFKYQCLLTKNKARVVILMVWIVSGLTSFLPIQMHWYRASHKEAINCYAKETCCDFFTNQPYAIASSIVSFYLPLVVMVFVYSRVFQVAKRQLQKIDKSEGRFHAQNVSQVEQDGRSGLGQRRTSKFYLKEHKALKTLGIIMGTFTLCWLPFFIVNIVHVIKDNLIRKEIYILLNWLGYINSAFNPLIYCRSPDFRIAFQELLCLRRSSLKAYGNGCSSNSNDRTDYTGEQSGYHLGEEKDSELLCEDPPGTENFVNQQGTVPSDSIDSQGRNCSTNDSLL
Experimental: as §1, §2, §3

Row | SMILES | EC50 [1] [nM] | EC50 [2] [nM]
1 | CC(/C=C/c1ccc2[nH]cnc2c1)N[C@@H]1CCn2c(=O)[nH]c3cccc(c32)[C@H]1O (mixture of isomers) [Example 42, 6-{[3-(1H-Benzimidazol-5-yl)-1-methylprop-2-en-1-yl]amino}-7-hydroxy-4,5,6,7-tetrahydroimidazo[4,5,1-jk][1]benzazepin-2(1H)-one] | 22 | 23
2 | CC(CCc1c[nH]c2ccccc12)NC1CCn2c(=O)[nH]c3cccc(c32)C1O (single isomer, unassigned) [Example 4a, 7-Hydroxy-6-{[3-(1H-indol-3-yl)-1-methylpropyl]amino}-4,5,6,7-tetrahydroimidazo[4,5,1-jk][1]benzazepin-2(1H)-one] | 6.9 | 3.2
3 | CC(CCc1cncs1)N[C@@H]1CCn2c(=O)[nH]c3cccc(c32)[C@H]1O (single isomer, unassigned) [Example 6a, 7-Hydroxy-6-{[1-methyl-3-(1,3-thiazol-5-yl)propyl]amino}-4,5,6,7-tetrahydroimidazo[4,5,1-jk][1]benzazepin-2(1H)-one] | > 10000 | 22.9
4 | CC(CCc1cncs1)N[C@@H]1CCn2c(=O)[nH]c3cccc(c32)[C@H]1O (single isomer, unassigned) [Example 6b, 7-Hydroxy-6-{[1-methyl-3-(1,3-thiazol-5-yl)propyl]amino}-4,5,6,7-tetrahydroimidazo[4,5,1-jk][1]benzazepin-2(1H)-one] | > 10000 | 3.6
5 | Cc1nn(C)c(C)c1CCC(C)N[C@@H]1CCn2c(=O)[nH]c3cccc(c32)[C@H]1O (single isomer, unassigned) [Example 9a, 7-Hydroxy-6-{[1-methyl-3-(1,3,5-trimethyl-1H-pyrazol-4-yl)propyl]amino}-4,5,6,7-tetrahydroimidazo[4,5,1-jk][1]benzazepin-2(1H)-one] | 268 | 402
6 | Cc1nn(C)c(C)c1CCC(C)N[C@@H]1CCn2c(=O)[nH]c3cccc(c32)[C@H]1O (single isomer, unassigned) [Example 9b, 7-Hydroxy-6-{[1-methyl-3-(1,3,5-trimethyl-1H-pyrazol-4-yl)propyl]amino}-4,5,6,7-tetrahydroimidazo[4,5,1-jk][1]benzazepin-2(1H)-one] | 2.8 | 4.2
7 | CCOC(=O)c1[nH]c2ccccc2c1CC(C)NC1CCn2c(=O)[nH]c3cccc(c32)C1O (single isomer, unassigned) [Example 16, Ethyl 3-(2-{[7-hydroxy-2-oxo-1,2,4,5,6,7-hexahydroimidazo[4,5,1-jk][1]benzazepin-6-yl]amino}propyl)-1H-indole-2-carboxylate] | 10 | 26
8 | Cc1nc(C)c(CCC(C)N[C@@H]2CCn3c(=O)[nH]c4cccc(c43)[C@H]2O)s1 (single isomer, unassigned) [Example 23a, 6-{[3-(2,4-Dimethyl-1,3-thiazol-5-yl)-1-methylpropyl]amino}-7-hydroxy-4,5,6,7-tetrahydroimidazo[4,5,1-jk][1]benzazepin-2(1H)-one] | 121 | 153
9 | Cc1nc(C)c(CCC(C)N[C@@H]2CCn3c(=O)[nH]c4cccc(c43)[C@H]2O)s1 (single isomer, unassigned) [Example 23b, 6-{[3-(2,4-Dimethyl-1,3-thiazol-5-yl)-1-methylpropyl]amino}-7-hydroxy-4,5,6,7-tetrahydroimidazo[4,5,1-jk][1]benzazepin-2(1H)-one] | 4.9 | 12
10 | Cc1ncc(CCC(C)N[C@@H]2CCn3c(=O)[nH]c4cccc(c43)[C@H]2O)s1 (single isomer, unassigned) [Example 28b, 7-Hydroxy-6-{[1-methyl-3-(2-methyll-1,3-thiazol-5-yl)propyl]amino}-4,5,6,7-tetrahydroimidazo[4,5,1-jk][1]benzazepin-2(1H)-one] | > 10000 | 6.6
11 | CC(CCc1c[nH]c2ccncc12)N[C@@H]1CCn2c(=O)[nH]c3cccc(c32)[C@H]1O (single isomer, unassigned) [Example 31b, 7-Hydroxy-6-{[1-methyl-3-(1H-pyrrolo[3,2-c]pyridin-3-yl)propyl]amino}-4,5,6,7-tetrahydroimidazo[4,5,1-jk][1]benzazepin-2(1H)-one] | 43 | 58
12 | CC(CCc1c[nH]c2cnccc12)N[C@@H]1CCn2c(=O)[nH]c3cccc(c32)[C@H]1O (single isomer, unassigned) [Example 32b, 7-Hydroxy-6-{[1-methyl-3-(1H-pyrrolo[2,3-c]pyridin-3-yl)propyl]amino}-4,5,6,7-tetrahydroimidazo[4,5,1-jk][1]benzazeiin-2(1H)-one] | 1090 | 96
13 | Cc1ncsc1CCC(C)N[C@@H]1CCn2c(=O)[nH]c3cccc(c32)[C@H]1O (single isomer, unassigned) [Example 34b, 7-Hydroxy-6-{[1-methyl-3-(4-methyl-1,3-thiazol-5-yl)propyl]amino}-4,5,6,7-tetrahydroimidazo[4,5,1-jk][1]benzazepin-2(1H)-one] | 2.1 | 1.4

Second part, the molecule after the results:

Row | EC50 [1] [nM] | EC50 [2] [nM] | SMILES
14 | 11 | 16 | CC(CCc1ccc2occc2c1)N[C@@H]1CCn2c(=O)[nH]c3cccc(c32)[C@H]1O (mixture of isomers) [Example 43, 6-{[3-(1-Benzofuran-5-yl)-1-methylpropyl]amino}-7-hydroxy-4,5,6,7-tetrahydroimidazo[4,5,1-jk][1]benzazepin-2(1H)-one]
15 | 6.9 | 3.8 | CC(CCc1c[nH]c2ccccc12)NC1CCn2c(=O)[nH]c3cccc(c32)C1O (single isomer, unassigned) [Example 4b, 7-Hydroxy-6-{[3-(1H-indol-3-yl)-1-methylpropyl]amino}-4,5,6,7-tetrahydroimidazo[4,5,1-jk][1]benzazepin-2(1H)-one]
16 | > 10000 | 1830 | CC(CCc1c[nH]c2ccc(Cl)cc12)N[C@@H]1CCn2c(=O)[nH]c3cccc(c32)[C@H]1O (single isomer, unassigned) [Example 21a, 6-{[3-(5-Chloro-1H-indol-3-yl)-1-methylpropyl]amino}-7-hydroxy-4,5,6,7-tetrahydroimidazo[4,5,1-jk][1]benzazepin-2(1H)-one]
17 | 11 | 15 | CC(CCc1c[nH]c2ccc(Cl)cc12)N[C@@H]1CCn2c(=O)[nH]c3cccc(c32)[C@H]1O (single isomer, unassigned) [Example 21b, 6-{[3-(5-Chloro-1H-indol-3-yl)-1-methylpropyl]amino}-7-hydroxy-4,5,6,7-tetrahydroimidazo[4,5,1-jk][1]benzazepin-2(1H)-one]
18 | 28 | 16 | CC(CCc1ccc2[nH]ccc2c1)N[C@@H]1CCn2c(=O)[nH]c3cccc(c32)[C@H]1O (single isomer, unassigned) [Example 37]
19 | 79 | 44 | CC(CCc1cccc2cc[nH]c12)N[C@@H]1CCn2c(=O)[nH]c3cccc(c32)[C@H]1O (single isomer, unassigned) [Example 38a, 7-Hydroxy-6-{[3-(1H-indol-7-yl)-1-methylpropyl]amino}-4,5,6,7-tetrahydroimidazo[4,5,1-jk][1]benzazepin-2(1H)-one]
